# Experimental data from US8067442B2, “Heterocyclic antiviral compounds” (Roche Palo Alto LLC, priority 2008, dated 2011).
# pIC50: −log10 of the molar value.
# Legend:
# [1] = test system: HCV replicon cells (2209-23), genotype 1b replicon in human hepatoma Huh7 cells; test: HCV replicon assay (Renilla luciferase reporter); type: cell-based, HCV genotype 1b; conditions: Hepatitis C virus, Huh-7, 72 h; 2209-23 cells, three days incubation
# in vitro = conditions: human
# [2] = biological target: T1, HCV polymerase (NS5B570n-Con1) (Hepatitis C virus genotype 1b, UniProt Q9WMX2); test: biochemical; parameters: species or system HCV Con1 strain
# T1 construct: a 21 amino acid C-terminal deletion of full-length HCV polymerase; made in house; host or cells: E. coli BL21(DE3) pLysS, plasmid pET17b
# Method: The enzymatic activity of HCV polymerase (NS5B570n-Con1) was measured as the incorporation of radiolabeled nucleotide monophosphates into acid insoluble RNA products. Unincorporated radiolabeled substrate was removed by filtration and scintillant was added to the washed and dried filter plate containing radiolabeled RNA product. The amount of RNA product generated by NS5B570n-Con1 at the end of the reaction was directly proportional to the amount of light emitted by the scintillant.
# The HCV polymerase used in the enzymatic activity assay is a 21 amino acid C-terminal deletion of full-length HCV polymerase derived from HCV Con1 strain, genotype 1b (GenBank accession number AJ242654) (NS5B570n-Con1). The NS5B570n-Con1 was sub-cloned downstream to the T7 promoter of the plasmid expression construct pET17b and transformed into E. coli strain BL21(DE3) pLysS for protein expression. A single colony was used to start an innoculum for a 10 L culture in LB media supplemented with 100 μg/mL ampicillin at 37° C. Protein expression was induced by the addition of 0.25 mM isopropyl-β-D-thiogalactopyranoside (IPTG) when the optical density of the culture at […] was 0.8. Induction of protein expression was carried out at 30° C. for 16 h after which the cells were harvested by centrifugation. NS5B570n-Con1 was purified to homogeneity using a three-column purification protocol including subsequent column chromatography on Ni-NTA, SP-Sepharose HP and Superdex 75 resins.
# Enzymatic reactions in the presence of cIRES RNA template (see section [0300]) contained 20 nM cIRES RNA, 20 nM NS5B570n-Con1 enzyme, 0.5 μCi of tritiated UTP (Perkin Elmer catalog no. TRK-412; specific activity: 30 to 60 Ci/mmol), 1 μM each ATP, CTP, and GTP, 40 mM Tris-HCl pH 8.0, 40 mM NaCl, 4 mM DTT (dithiothreitol), 4 mM MgCl2, 5 μl of compound serial diluted in DMSO, and nuclease-free water to a final reaction volume of 50 μl. Enzymatic reactions in the presence of 20 nM cIRES template, 20 nM NS5B570n-Con1 enzyme, 1 μCi of tritiated UTP (Perkin Elmer catalog no. TRK-412; specific activity: 30 to 60 Ci/mmol), 40 mM Tris-HCl pH 8.0, 40 mM NaCl, 4 mM DTT (dithiothreitol), 4 mM MgCl2, 5 μl of compound serial diluted in DMSO, and nuclease-free water to a final reaction volume of 50 μl. Reaction mixtures were assembled in 96-well filter plates (cat #MADVNOB, Millipore Co.) and incubated for 2 h at 30° C. Reactions were stopped by addition of 10% final (v/v) trichloroacetic acid and incubated for 40 min at 4° C. Reactions were filtered, washed with 8 reaction volumes of 10% (v/v) trichloroacetic acetic acid, 4 reaction volumes of 70% (v/v) ethanol, air dried, and 25 μl of scintillant (Microscint 20, Perkin-Elmer) was added to each reaction well.
# Two RNA templates can be used to assay compounds described herein. The cIRES RNA template is 377 nucleotide long and consisting of a partial complementary sequence (36 nucleotides) of the core protein, followed by 341 nucleotide of the complementary sequence of the internal ribosome entry site. The poly A RNA template (GE Amersham catalog number 27-4110) was a homopolymeric RNA pre-annealed to a oligo(rU)16 primer at a molar ratio of 3-to-1 (primer-template). The cIRES template was used in the assay unless otherwise noted.
# The amount of light emitted from the scintillant was converted to counts per minute (CPM) on a Topcount® plate reader (Perkin-Elmer, Energy Range: Low, Efficiency Mode Normal, Count Time: 1 min, Background Subtract: none, Cross talk reduction: Off).
# Data was analyzed in Excel® (Microsoft®) and ActivityBase® (Idbs®). The reaction in the absence of enzyme was used to determine the background signal, which was subtracted from the enzymatic reactions. […] All data was expressed as a percentage of the positive control. The compound concentration at which the enzyme-catalyzed rate of RNA synthesis was reduced by 50% (IC50) was calculated by fitting
# HCV = conditions: cited from earlier work
SMILES,pIC50 [1],melting point,CC50 (in vitro),pIC50 [2],serum levels of HCV-RNA (HCV; monotherapy / sole treatment),patients in whom serum amino transferase levels are reduced to normal (HCV; monotherapy)
CC(C)(C)c1cc(-c2ccc[nH]c2=O)cc2c(-c3ccc(N)cc3)coc12 [Compound I-86],6.46,248 to 250 °C,29200 nM,,,
"CC(C)(C)c1cc(-c2ccc[nH]c2=O)cc2c(C(=O)N3CCC[C@@H]3CNS(C)(=O)=O)csc12 [Compound 116, N-{(R)-1-[7-tert-Butyl-5-(2-oxo-1,2-dihydro-pyridin-3-yl)-benzo[b]thiophene-3-carbonyl]-pyrrolidin-2-ylmethyl}-methanesulfonamide]",,289 to 291 °C,,8.40,,
"CC(C)(C)c1cc(-c2ncc[nH]c2=O)cc2c(C(=O)N3CCCC(CNS(C)(=O)=O)C3)coc12 (stereo not drawn) [Compound 102, N-{1-[7-tert-Butyl-5-(3-oxo-3,4-dihydro-pyrazin-2-yl)-benzofuran-3-carbonyl]-piperidin-3-ylmethyl}-methanesulfonamide]",,172 to 174 °C,,8.10,,
CC(C)(C)c1cc(-c2ccc[nH]c2=O)cc2c(C(=O)N3CCC[C@@H](N)C3)coc12 [Compound I-42],,254.9 to 258.1 °C,,6.26,,
"CC(C)(C)c1cc(-c2ccc[nH]c2=O)cc2c(-c3cccc(C(N)=O)c3)coc12 [Compound I-78, 3-[7-tert-Butyl-5-(2-oxo-1,2-dihydro-pyridin-3-yl)-benzofuran-3-yl]-benzamide]",7.11,190 to 193 °C,12400 nM,8.05,,
Cn1cc(C(N)=O)c2cc(-c3ccc[nH]c3=O)cc(C(C)(C)C)c21 [Compound I-112],,232 to 234 °C,,6.11,,
CC(C)(C)c1cc(-c2ccc[nH]c2=O)cc2c(C(=O)Nc3cccc(NS(C)(=O)=O)c3)coc12 [Compound I-83],,290 to 291 °C,,6.70,,
CC(C)(C)c1cc(-c2ccc[nH]c2=O)cc2c(C(=O)N3CCC3)coc12 [Compound I-94],,> 300 °C,,6.83,,
"CC(C)(C)c1cc(-c2ccc[nH]c2=O)cc2c(C(=O)c3cccc(O)c3)coc12 [Compound I-36, 3-[7-tert-Butyl-3-(3-hydroxy-benzoyl)-benzofuran-5-yl]-1H-pyridin-2-one]",,268 to 269 °C,,7.42,,
CC(C)(C)c1cc(-c2ccc[nH]c2=O)cc2c(C(=O)N3CC(CO)C3)coc12 [Compound I-95],,292 to 293 °C,,7.37,,
"NC(=O)c1ncn([C@@H]2O[C@H](CO)[C@@H](O)[C@H]2O)n1 [ribavirin, 1-((2R,3R,4S,5R)-3,4-Dihydroxy-5-hydroxymethyl-tetrahydro-furan-2-yl)-1H-[1,2,4]triazole-3-carboxylic acid amide]",,,,,does not lower,40%
CC(C)(C)c1cc(-c2ccc[nH]c2=O)cc2c(C(=O)c3ccccc3)coc12 [Compound I-20],,271 to 272 °C,,7.31,,
"CC(C)(C)c1cc(-c2ccc[nH]c2=O)cc2c(C(=O)N3CCCC(CNS(C)(=O)=O)C3)csc12 (stereo not drawn) [Compound 114, N-{1-[7-tert-Butyl-5-(2-oxo-1,2-dihydro-pyridin-3-yl)-benzo[b]thiophene-3-carbonyl]-piperidin-3-ylmethyl}-methanesulfonamide]",,175 to 177 °C,,8.52,,
CN(CC1CCCN(C(=O)c2coc3c(C(C)(C)C)cc(-c4ccc[nH]c4=O)cc23)C1)S(C)(=O)=O (stereo not drawn) [Compound I-104],,155 to 157 °C,,7.70,,
CC(=O)Nc1ccc(-c2coc3c(C(C)(C)C)cc(-c4ccc[nH]c4=O)cc23)cc1 [Compound I-80],,> 300 °C,,7.19,,
CC(C)(C)c1cc(-c2ccc[nH]c2=O)cc2c(-c3cccc(CNS(C)(=O)=O)c3)coc12 [Compound I-81],,130 to 133 °C,,6.76,,
"CC(C)(C)c1cc(-c2ccc[nH]c2=O)cc2c(CC#N)coc12 [Compound I-5, [7-tert-Butyl-5-(2-oxo-1,2-dihydro-pyridin-3-yl)-benzofuran-3-yl]-acetonitrile]",,231 to 232 °C,,6.48,,
"CC(C)(C)c1cc(-c2ccc[nH]c2=O)cc2c(-c3ccc(CN(CCO)S(C)(=O)=O)cc3)coc12 [Compound I-76, N-{4-[7-tert-Butyl-5-(2-oxo-1,2-dihydro-pyridin-3-yl)-benzofuran-3-yl]-benzyl}-N-(2-hydroxy-ethyl)-methanesulfonamide]",,222 to 224 °C,,7.46,,
"Cc1ccc(-c2coc3c(C(C)(C)C)cc(-c4ccc[nH]c4=O)cc23)nc1 [Compound I-91, 3-[7-tert-Butyl-3-(5-methyl-pyridin-2-yl)-benzofuran-5-yl]-1H-pyridin-2-one]",,295 to 297 °C,,6.49,,
"CC(C)(C)c1cc(-c2ccc[nH]c2=O)cc2c(CC(=O)O)coc12 [Compound I-6, [7-tert-Butyl-5-(2-oxo-1,2-dihydro-pyridin-3-yl)-benzofuran-3-yl]-acetic acid]",,233 to 234 °C,,6.45,,
CC(C)(C)c1cc(-c2ccc[nH]c2=O)cc2c(C(=O)Nc3cccc(CNS(C)(=O)=O)c3)coc12 [Compound I-85],,237 to 239 °C,,6.13,,
CC(C)(C)c1cc(-c2ccc[nH]c2=O)cc2c(C(=O)N3CCC[C@H](CNS(C)(=O)=O)C3)coc12 [Compound I-100],7.85,,,8.10,,
CC(C)(C)c1cc(-c2ccc[nH]c2=O)cc2c(C(=O)N3CCC[C@H](N)C3)coc12 [Compound I-41],,269 to 270 °C,,6.90,,
CC(C)(C)c1cc(-c2ccc[nH]c2=O)cc2c(C(=O)N3CCC(NS(C)(=O)=O)CC3)coc12 [Compound I-99],,193 to 195 °C,,6.06,,
CC(C)(C)c1cc(-c2ccc[nH]c2=O)cc2c(C(=O)Nc3nccs3)coc12 [Compound I-84],,> 300 °C,,6.45,,
"CC(C)(C)c1cc(-c2ccc[nH]c2=O)cc2c(-c3ccc(CNS(C)(=O)=O)cc3)coc12 [Compound I-37, N-{4-[7-tert-Butyl-5-(2-oxo-1,2-dihydro-pyridin-3-yl)-benzofuran-3-yl]-benzyl}1-methanesulfonamide]",,271 to 273 °C,,8.40,,
CCS(=O)(=O)NC[C@H]1CCN(C(=O)c2coc3c(C(C)(C)C)cc(-c4ccc[nH]c4=O)cc23)C1 [Compound I-106],,240 to 242 °C,,7.77,,
